In patent US12539292B2, “BRM targeting compounds and associated methods of use” (Arvinas Operations, Inc., priority 2018, dated 2026) one finds DC50 and Dmax data, which are given here for 12 compounds.

The target in the test is T1, BRM (Homo sapiens, UniProt P51531).
T1 construct: In-Cell Western Screen of BRM Degradation in SW1573 Cells; endogenous in cells; host or cells: SW1573
Nature of the test: In-cell Western screen of BRM degradation in SW1573 cells (Dmax and DC50). The format is cell-based. The method, boiled down:
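Adherent SW1573 cultures exposed to test compounds for 18-20 h were processed for in-cell Western after PFA fixation and detergent permeabilization. BRM degradation was reported as Dmax and DC50.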

Where [1] appears, read: BRM degradation, SW1573 cells, read-out: DC50.
The mark [2] stands for this setting: BRM degradation, SW1573 cells, tested at the top concentration of between 0.3 and 10 μM, read-out: Dmax (%) (% degraded).
Where [3] appears, read: SW1573, % degraded, when tested at the top concentration of between 0.3 and 10 μM, read-out: BRM Dmax (%).
Setting [4] is: degradation of BRM, read-out: BRM DC50.
[5] abbreviates: BRM degradation, SW1573 cells, when tested at the top concentration of between 0.3 and 10 μM, read-out: Dmax (%) (% degraded).

SMILES strings stand for the structures. Like-named read-outs stand apart in the source and are kept apart here. Bounds are passed on as bounds.

T1 sequence (P51531 whole entry): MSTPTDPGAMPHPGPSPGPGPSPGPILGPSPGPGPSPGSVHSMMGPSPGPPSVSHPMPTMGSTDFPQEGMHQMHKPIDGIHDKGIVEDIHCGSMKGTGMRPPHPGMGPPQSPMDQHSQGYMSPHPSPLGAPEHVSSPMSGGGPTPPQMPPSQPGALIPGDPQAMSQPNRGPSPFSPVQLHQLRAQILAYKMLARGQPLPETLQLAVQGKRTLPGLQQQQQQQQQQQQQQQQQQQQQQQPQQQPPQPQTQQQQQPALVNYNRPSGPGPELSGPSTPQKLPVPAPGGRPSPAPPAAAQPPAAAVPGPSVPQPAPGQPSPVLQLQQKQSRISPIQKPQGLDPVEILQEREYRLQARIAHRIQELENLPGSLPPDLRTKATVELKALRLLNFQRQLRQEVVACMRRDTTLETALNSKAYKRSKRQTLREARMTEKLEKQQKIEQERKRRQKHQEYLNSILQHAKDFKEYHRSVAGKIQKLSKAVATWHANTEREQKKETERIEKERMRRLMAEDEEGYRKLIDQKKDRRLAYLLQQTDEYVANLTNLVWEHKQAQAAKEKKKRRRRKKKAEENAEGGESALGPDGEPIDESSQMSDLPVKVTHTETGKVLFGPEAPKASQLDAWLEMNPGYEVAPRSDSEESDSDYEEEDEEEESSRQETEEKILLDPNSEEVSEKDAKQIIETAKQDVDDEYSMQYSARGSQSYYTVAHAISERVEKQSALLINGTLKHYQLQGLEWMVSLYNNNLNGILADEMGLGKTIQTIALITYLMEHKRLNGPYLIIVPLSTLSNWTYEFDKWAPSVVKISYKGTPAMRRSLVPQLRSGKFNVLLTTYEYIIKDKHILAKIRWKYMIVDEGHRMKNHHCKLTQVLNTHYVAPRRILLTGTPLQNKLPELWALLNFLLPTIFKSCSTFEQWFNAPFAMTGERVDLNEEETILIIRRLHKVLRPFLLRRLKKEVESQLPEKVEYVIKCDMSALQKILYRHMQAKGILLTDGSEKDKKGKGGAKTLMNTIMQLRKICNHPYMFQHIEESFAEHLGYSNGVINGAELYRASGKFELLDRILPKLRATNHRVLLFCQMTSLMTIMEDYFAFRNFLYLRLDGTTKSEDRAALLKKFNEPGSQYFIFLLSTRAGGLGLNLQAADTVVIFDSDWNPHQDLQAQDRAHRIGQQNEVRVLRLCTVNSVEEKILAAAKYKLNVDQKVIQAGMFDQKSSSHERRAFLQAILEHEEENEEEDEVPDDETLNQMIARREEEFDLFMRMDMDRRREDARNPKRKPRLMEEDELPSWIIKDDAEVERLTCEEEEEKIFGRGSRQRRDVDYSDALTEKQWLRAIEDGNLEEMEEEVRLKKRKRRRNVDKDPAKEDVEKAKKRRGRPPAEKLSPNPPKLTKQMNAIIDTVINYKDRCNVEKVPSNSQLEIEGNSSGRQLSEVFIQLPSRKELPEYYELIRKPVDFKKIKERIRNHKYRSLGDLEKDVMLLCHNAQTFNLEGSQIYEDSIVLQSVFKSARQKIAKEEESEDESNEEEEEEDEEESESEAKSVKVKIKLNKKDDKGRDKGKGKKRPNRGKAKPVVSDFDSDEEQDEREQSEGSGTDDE

One may read the DC50 as the concentration giving 50% degradation. The compound `Cc1ncsc1-c1ccc([C@H](C)NC(=O)[C@@H]2C[C@@H](O)CN2C(=O)[C@@H](c2cc(OCCN3CCC(O[C@H]4C[C@H](Oc5cc(N6C7CCC6CN(c6cc(-c8ccccc8)nnc6N)C7)ccn5)C4)CC3)no2)C(C)C)cc1` [compound 537, (2S,4R)-1-((2R)-2-(3-(2-(4-((1r,3R)-3-((4-(3-(3-amino-6-phenylpyridazin-4-yl)-3,8-diazabicyclo[3.2.1]octan-8-yl)pyridin-2-yl)oxy)cyclobutoxy)piperidin-1-yl)ethoxy)isoxazol-5-yl)-3-methylbutanoyl)-4-hydroxy-N-((S)-1-(4-(4-methylthiazol-5-yl)phenyl)ethyl)pyrrolidine-2-carboxamide] gave a 50% degradation concentration (DC50) (BRM degradation, SW1573 cells, Table 2D) greater than 30 nM.

What is called Dmax is the greatest extent of degradation seen. `Cc1cc([C@H](C(=O)N2C[C@H](O)C[C@H]2C(=O)N[C@@H](C)c2ccc(-c3scnc3C)cc2)[C@@H](C)COCCOc2cc(N3C4CCC3CN(c3cc(-c5ccccc5O)nnc3N)C4)ccn2)on1` [compound 302, (2S,4R)-1-((2R,3R)-4-(2-((4-(3-(3-amino-6-(2-hydroxyphenyl)pyridazin-4-yl)-3,8-diazabicyclo[3.2.1]octan-8-yl)pyridin-2-yl)oxy)ethoxy)-3-methyl-2-(3-methylisoxazol-5-yl)butanoyl)-4-hydroxy-N-((S)-1-(4-(4-methylthiazol-5-yl)phenyl)ethyl)pyrrolidine-2-carboxamide]: the DC50 under setting [1] fell in the range of 10 to 30 nM. Further, the maximal degradation (Dmax) under setting [2] was greater than 75%.

In the case of `Cc1nccn1-c1ccc([C@H](C)NC(=O)[C@@H]2C[C@@H](O)CN2C(=O)[C@@H](c2cc(N3CCN(CCN4CCC(O[C@H]5C[C@H](Oc6cc(N7C8CCC7CN(c7cc(-c9ccccc9O)nnc7N)C8)ccn6)C5)CC4)CC3)no2)C(C)C)cc1` [compound 413, (2S,4R)-1-((2R)-2-(3-(4-(2-(4-((1r,3r)-3-((4-(3-(3-amino-6-(2-hydroxyphenyl)pyridazin-4-yl)-3,8-diazabicyclo[3.2.1]octan-8-yl)pyridin-2-yl)oxy)cyclobutoxy)piperidin-1-yl)ethyl)piperazin-1-yl)isoxazol-5-yl)-3-methylbutanoyl)-4-hydroxy-N-((S)-1-(4-(2-methyl-1H-imidazol-1-yl)phenyl)ethyl)pyrrolidine-2-carboxamide], the Dmax under setting [3] was greater than 75%. In addition, under setting [4], the DC50 was less than 2.5 nM.

`Cc1ncsc1-c1ccc([C@@H](COCC(C)C)NC(=O)[C@@H]2C[C@@H](O)CN2C(=O)[C@@H](c2cc(OCCN3CCN(CCOc4cc(N5C6CCC5CN(c5cc(-c7ccccc7O)nnc5N)C6)ccn4)CC3)no2)C(C)C)cc1` [compound 298, (2S,4R)-1-((2R)-2-(3-(2-(4-(2-((4-(3-(3-amino-6-(2-hydroxyphenyl)pyridazin-4-yl)-3,8-diazabicyclo[3.2.1]octan-8-yl)pyridin-2-yl)oxy)ethyl)piperazin-1-yl)ethoxy)isoxazol-5-yl)-3-methylbutanoyl)-4-hydroxy-N-((S)-2-isobutoxy-1-(4-(4-methylthiazol-5-yl)phenyl)ethyl)pyrrolidine-2-carboxamide]: the DC50 under setting [1] is less than 2.5 nM. For the same compound, the maximal degradation (Dmax) under setting [2] was greater than 75%.

For the compound `Cc1ncsc1-c1ccc([C@H](C)NC(=O)[C@@H]2C[C@@H](O)CN2C(=O)[C@@H](NC(=O)COCCOCCOCCOCCOCCOCCOCCOc2cc(N3C4CCC3CN(c3cc(-c5ccccc5O)nnc3N)C4)ccn2)C(C)(C)C)cc1` [compound 35, (2S,4R)-1-[(2S)-2-[1-(4-[3-[3-amino-6-(2-hydroxyphenyl)pyridazin-4-yl]-3,8-diazabicyclo[3.2.1]octan-8-yl]pyridin-2-yl)-1,4,7,10,13,16,19,22-octaoxatetracosan-24-amido]-3,3-dimethylbutanoyl]-4-hydroxy-N-[(1S)-1-[4-(4-methyl-1,3-thiazol-5-yl)phenyl]ethyl]pyrrolidine-2-carboxamide], the DC50 under setting [1] fell in the range of 2.5 to 10 nM. Moreover, the Dmax under setting [5] was greater than 75%.

On to `CC(C)[C@@H](C(=O)N1C[C@H](O)C[C@H]1C(=O)N[C@@H](C)c1ccc(C#N)cc1)c1cc(OCCN2CCC(O[C@H]3C[C@H](Oc4cc(N5C6CCC5CN(c5cc(-c7ccccc7O)nnc5N)C6)ccn4)C3)CC2)no1` [compound 203, (2S,4R)-1-((2R)-2-(3-(2-(4-((1r,3R)-3-((4-(3-(3-amino-6-(2-hydroxyphenyl)pyridazin-4-yl)-3,8-diazabicyclo[3.2.1]octan-8-yl)pyridin-2-yl)oxy)cyclobutoxy)piperidin-1-yl)ethoxy)isoxazol-5-yl)-3-methylbutanoyl)-N-((S)-1-(4-cyanophenyl)ethyl)-4-hydroxypyrrolidine-2-carboxamide], for which the half-maximal degradation concentration (DC50) under setting [1] was less than 2.5 nM. The Dmax under setting [2] is greater than 75%.

For `Cc1ncsc1-c1ccc([C@H](C)NC(=O)[C@@H]2C[C@@H](O)CN2C(=O)[C@@H](c2cc(OCC(F)(F)CN3CCC(O[C@H]4C[C@H](Oc5cc(N6C7CCC6CN(c6cc(-c8ccccc8O)nnc6N)C7)ccn5)C4)CC3)no2)C(C)C)cn1` [compound 422, (2S,4R)-1-((2R)-2-(3-(3-(4-((1r,3R)-3-((4-(3-(3-amino-6-(2-hydroxyphenyl)pyridazin-4-yl)-3,8-diazabicyclo[3.2.1]octan-8-yl)pyridin-2-yl)oxy)cyclobutoxy)piperidin-1-yl)-2,2-difluoropropoxy)isoxazol-5-yl)-3-methylbutanoyl)-4-hydroxy-N-((S)-1-(6-(4-methylthiazol-5-yl)pyridin-3-yl)ethyl)pyrrolidine-2-carboxamide], the Dmax under setting [3] was greater than 75%. Further, the 50% degradation concentration (DC50) under setting [4] is less than 2.5 nM.

As to `Cc1ncsc1-c1ccc([C@H](C)NC(=O)[C@@H]2C[C@@H](O)CN2C(=O)[C@@H](c2cc(N3CCN(CC4CCN(C[C@H]5C[C@H](Oc6cc(N7C8CCC7CN(c7cc(-c9ccccc9O)nnc7N)C8)ccn6)C5)CC4)CC3)no2)C(C)C)cn1` [compound 427, (2S,4R)-1-((2R)-2-(3-(4-((1-(((1r,3r)-3-((4-(3-(3-amino-6-(2-hydroxyphenyl)pyridazin-4-yl)-3,8-diazabicyclo[3.2.1]octan-8-yl)pyridin-2-yl)oxy)cyclobutyl)methyl)piperidin-4-yl)methyl)piperazin-1-yl)isoxazol-5-yl)-3-methylbutanoyl)-4-hydroxy-N-((S)-1-(6-(4-methylthiazol-5-yl)pyridin-3-yl)ethyl)pyrrolidine-2-carboxamide], under setting [3], the Dmax was greater than 75%. Moreover, the DC50 under setting [4] is less than 2.5 nM.

Take `Cc1ncsc1-c1ccc([C@H](C)NC(=O)[C@@H]2C[C@@H](O)CN2C(=O)[C@@H](c2cc(OCC[C@H]3CC[C@H](O[C@H]4C[C@H](Oc5cc(N6C7CCC6CN(c6cc(-c8ccccc8O)nnc6N)C7)ccn5)C4)CC3)no2)C(C)C)cn1` [compound 486, (2S,4R)-1-((2R)-2-(3-(2-((1R,4R)-4-((1r,3R)-3-((4-(3-(3-amino-6-(2-hydroxyphenyl)pyridazin-4-yl)-3,8-diazabicyclo[3.2.1]octan-8-yl)pyridin-2-yl)oxy)cyclobutoxy)cyclohexyl)ethoxy)isoxazol-5-yl)-3-methylbutanoyl)-4-hydroxy-N-((S)-1-(6-(4-methylthiazol-5-yl)pyridin-3-yl)ethyl)pyrrolidine-2-carboxamide]: the Dmax under setting [3] is greater than 75%. Moreover, the DC50 (target protein degradation, read-out: BRM DC50) was less than 2.5 nM.

With `Cc1cc([C@@H](C(=O)N2C[C@H](O)C[C@H]2C(=O)N[C@@H](C)c2ccc(-c3scnc3C)cc2)[C@H](C)COCCOc2cc(N3C4CCC3CN(c3cc(-c5ccccc5O)nnc3N)C4)ccn2)on1` [compound 513, (2S,4R)-1-((2S,3S)-4-(2-((4-(3-(3-amino-6-(2-hydroxyphenyl)pyridazin-4-yl)-3,8-diazabicyclo[3.2.1]octan-8-yl)pyridin-2-yl)oxy)ethoxy)-3-methyl-2-(3-methylisoxazol-5-yl)butanoyl)-4-hydroxy-N-((S)-1-(4-(4-methylthiazol-5-yl)phenyl)ethyl)pyrrolidine-2-carboxamide], the DC50 (BRM degradation, read-out: BRM DC50) is greater than 30 nM.

Consider `Cc1ncsc1-c1ccc(CNC(=O)[C@@H]2C[C@@H](O)CN2C(=O)[C@@H](NC(=O)COCCOCCOCCOc2cccc(N3C[C@H]4C[C@@H]3CN4c3cc(-c4ccccc4O)nnc3N)n2)C(C)(C)C)cc1` [compound 32, (2S,4R)-1-[(2S)-2-(1-[6-[(1R,4R)-5-[3-amino-6-(2-hydroxyphenyl)pyridazin-4-yl]-2,5-diazabicyclo[2.2.1]heptan-2-yl]pyridin-2-yl]-1,4,7,10-tetraoxadodecan-12-amido)-3,3-dimethylbutanoyl]-4-hydroxy-N-[[4-(4-methyl-1,3-thiazol-5-yl)phenyl]methyl]pyrrolidine-2-carboxamide], for which, under setting [1], the DC50 was greater than 30 nM. Moreover, the greatest degradation seen (Dmax) under setting [5] is greater than 75%.

For the compound `Cc1ncsc1-c1cc(F)c([C@H](C)NC(=O)[C@@H]2C[C@@H](O)CN2C(=O)[C@H](c2cc(OCCC3CCN(C[C@H]4C[C@H](Oc5cc(N6C7CCC6CN(c6cc(-c8ccccc8O)nnc6N)C7)ccn5)C4)CC3)no2)C(C)C)cc1F` [compound 551, (2S,4R)-1-((2S)-2-(3-(2-(1-(((1r,3S)-3-((4-(3-(3-amino-6-(2-hydroxyphenyl)pyridazin-4-yl)-3,8-diazabicyclo[3.2.1]octan-8-yl)pyridin-2-yl)oxy)cyclobutyl)methyl)piperidin-4-yl)ethoxy)isoxazol-5-yl)-3-methylbutanoyl)-N-((S)-1-(2,5-difluoro-4-(4-methylthiazol-5-yl)phenyl)ethyl)-4-hydroxypyrrolidine-2-carboxamide], the Dmax (BRM degradation, SW1573 cells, Table 2D, read-out: **Dmax (%) (% degraded)) is greater than 75%. Besides, for the setting “BRM degradation, SW1573 cells, Table 2D, read-out: *DC50”, the half-maximal degradation concentration (DC50) is less than 2.5 nM.
